The source of these data is US20160280651A1, “COMPOUNDS THAT INDUCE ABA RESPONSES” (THE REGENTS OF THE UNIVERSITY OF CALIFORNIA, priority 2013, published 2016).

Molecules are shown by their SMILES.

One assay relates to Arabidopsis seeds. Put plainly: Arabidopsis germination inhibition analysis, Example 12. Format: in vivo. As to conditions: 0.2 uM; assessed after 3 days, dark. Here is the method:
To analyse the effect of compounds on inhibition of germination, Arabidopsis seeds after-ripened for about 4 weeks were surface-sterilized with a solution containing 5% NaClO and 0.05% Tween-20 for 10 minutes, and rinsed with water four times. Sterilized seeds were suspended with 0.1% agar and sowed on 0.8% solidified agar medium containing ½ Murashige and Skoog (MS) salts (Sigma-Aldrich) in the presence of the relevant treatment, stored at 4° C. for 4 days, and then transferred to 22° C. under the dark conditions. Germination was assessed after 3 days.
For the compound `C#CCN1C(=O)CCc2cc(NS(=O)(=O)Cc3ccc(C)cc3)cc(C)c21`, the “Percentage germination of Arabidopsis seeds” value (“Percentage germination” for short) was 100%.

Turning to `C=CCN1C(=O)CCc2cc(NS(=O)(=O)Cc3ccc(Br)cc3)cc(C)c21`, the “Percentage germination” value is on record as 100%.

On to `CCCN1C(=O)CCc2cc(NS(=O)(=O)Cc3ccc(C)cc3)ccc21` [drawing 36], for which the “Percentage germination” value was 100%.

Consider `C=CCN1C(=O)C(C)Cc2cc(NS(=O)(=O)Cc3ccc(OC(F)(F)F)cc3)ccc21` (centres unmarked), for which the “Percentage germination” value was 100%.

Take `C=CCN1C(=O)CCc2cc(NS(=O)(=O)Cc3ccc(OC(F)(F)F)cc3)cc(C)c21`: the “Percentage germination” value is 100%.

The same assay, now with this note: 1 uM; assessed after 3 days, dark.
Turning to `C#CCN1C(=O)CCc2cc(NS(=O)(=O)Cc3ccc(C)cc3)cc(C)c21`, the “Percentage germination” value is reported as 100%.

For `C=CCN1C(=O)CCc2cc(NS(=O)(=O)Cc3ccc(Br)cc3)cc(C)c21`, the “Percentage germination” value is recorded as 100%.

Regarding `CCCN1C(=O)CCc2cc(NS(=O)(=O)Cc3ccc(C)cc3)ccc21` [drawing 36], the “Percentage germination” value was 46%.

As to `C=CCN1C(=O)C(C)Cc2cc(NS(=O)(=O)Cc3ccc(OC(F)(F)F)cc3)ccc21` (centres unmarked), the “Percentage germination” value was determined as 100%.

With `C=CCN1C(=O)CCc2cc(NS(=O)(=O)Cc3ccc(OC(F)(F)F)cc3)cc(C)c21`, the “Percentage germination” value was 100%.

The same assay, now with this note: 5 uM; assessed after 3 days, dark.
For the compound `C#CCN1C(=O)CCc2cc(NS(=O)(=O)Cc3ccc(C)cc3)cc(C)c21`, the “Percentage germination” value turned out to be 100%.

For the compound `C=CCN1C(=O)CCc2cc(NS(=O)(=O)Cc3ccc(Br)cc3)cc(C)c21`, the “Percentage germination” value was determined as 96%.

Regarding `CCCN1C(=O)CCc2cc(NS(=O)(=O)Cc3ccc(C)cc3)ccc21` [drawing 36], the “Percentage germination” value turned out to be 0%.

Regarding `C=CCN1C(=O)C(C)Cc2cc(NS(=O)(=O)Cc3ccc(OC(F)(F)F)cc3)ccc21` (centres unmarked), the “Percentage germination” value was 100%.

Take `C=CCN1C(=O)CCc2cc(NS(=O)(=O)Cc3ccc(OC(F)(F)F)cc3)cc(C)c21`: the “Percentage germination” value was found to be 30%.

The same assay, now with this note: 25 uM; assessed after 3 days, dark.
With `C#CCN1C(=O)CCc2cc(NS(=O)(=O)Cc3ccc(C)cc3)cc(C)c21`, the “Percentage germination” value is reported as 0%.

With `C=CCN1C(=O)CCc2cc(NS(=O)(=O)Cc3ccc(Br)cc3)cc(C)c21`, the “Percentage germination” value is recorded as 0%.

Turning to `CCCN1C(=O)CCc2cc(NS(=O)(=O)Cc3ccc(C)cc3)ccc21` [drawing 36], the “Percentage germination” value is given as 0%.

As for `C=CCN1C(=O)C(C)Cc2cc(NS(=O)(=O)Cc3ccc(OC(F)(F)F)cc3)ccc21` (centres unmarked), the “Percentage germination” value was determined as 14%.

On to `C=CCN1C(=O)CCc2cc(NS(=O)(=O)Cc3ccc(OC(F)(F)F)cc3)cc(C)c21`, for which the “Percentage germination” value stood at 0%.
